According to patent publication US20020160981A1, “Compositions containing an association of aspirin and an anti-Xz oligosaccharide and use of an anti-Xa oligosaccharide optionally in combination with aspirin” (Sanofi-Synthelabo, priority 1997, published 2002):

Key:
prothrombin fragment 1+2 = prothrombin fragment 1+2 levels in PTCA patients; format: in vivo, human; settings: 2 hours after PS injection; fell from 2.08±1.04 before
[1] = test system: patients undergoing a transluminal angioplasty of the coronaries; experiment: pilot clinical study in patients undergoing PTCA: thrombus formation at PTCA sites and TIMI flow in target vessel; format: in vivo, human; settings: 71 patients
Protocol: A single dose of 12 mg of PS via the intravenous route and 500 mg of aspirin, via the intravenous route, was administered to the patients.
To assess the antithrombotic activity 71 patients with stable angina (26), recent unstable angina (11) or recent myocardial infarction (34) with type A or B coronary lesions underwent PTCA with a single 12 mg PS i.v. bolus injection and 500 mg i.v. aspirin. Angiography was repeated 24 h after PTCA. The endpoints were thrombus formation at PTCA sites and the thrombolysis in myocardial infarction (TIMI) flow in target vessel. Heparin was not allowed before, during and within 24 h after PTCA.

[2] = test system: Thrombin-antithrombin complexes; experiment: thrombin-antithrombin complexes levels (TAT) in PTCA patients; format: in vivo, human; settings: 2 hours after PS injection; fell from 21.9±18.7 before
[3] = activated clotting time (ACT) in PTCA patients; format: in vivo, human; settings: after 12 mg PS i.v. and 500 mg i.v. aspirin
[4] = single 12 mg PS i.v. bolus and 500 mg i.v. aspirin, no heparin

For `CO[C@H]1OC(COS(=O)(=O)O)[C@@H](O[C@@H]2OC(C(=O)O)[C@H](O[C@@H]3OC(COS(=O)(=O)O)[C@@H](O[C@@H]4OC(C(=O)O)[C@@H](O[C@H]5OC(COS(=O)(=O)O)[C@@H](O)C(O)C5NS(=O)(=O)O)C(O)C4O)C(OS(=O)(=O)O)C3NS(=O)(=O)O)C(O)C2OS(=O)(=O)O)C(O)C1NS(=O)(=O)O` (stereo partly drawn) [PS, methyl O-(2-deoxy-2-sulphoamino-6-O-sulpho-α-D-gluco-pyranosyl)-(1→4)-O-(β-D-glucopyranosyluronic acid)-(1→4)-O-(2-deoxy-2-sulphoamino-3,6-di-O-sulpho-α-D-glucopyranosyl)-(1→4)-O-(2-O-sulpho-α-L-idopyranosyl-uronic acid)-(1→4)-2-deoxy-2-sulphoamino-6-O-sulpho-α-D-glucopyranoside], the “prothrombin fragment 1+2” value (prothrombin fragment 1+2) was 1.54 ± 82 ng/mL, the “Anti-Xa activity, peak” value (factor Xa; 10 min. after 12 mg PS i.v. bolus (with 500 mg i.v. aspirin)) was 1.20±0.29 U anti-Xa/ml and the “Anti-Xa activity, maintained on average” value (factor Xa; 2 hours after PS administration, 12 mg i.v. (with 500 mg i.v. aspirin)) was 0.87 ±0.14 U anti-Xa/ml. The major bleeding ([1]; 12 mg PS i.v. and 500 mg i.v. aspirin) was “No major bleeding occurred”, the “Acute thrombotic closure at dissected PTCA site” value [1, 4] was 1 patient and the “distal embolization of a thrombus containing plaque” value [1, 4] was 1 patient. For the same compound, the “TIMI 3 flow without thrombus at PTCA site” value ([1]; at 24 h after PTCA, 12 mg PS i.v. and 500 mg i.v. aspirin) was 71 patients, the “Thrombin-antithrombin complexes levels (TAT)” value [2] was 4.8 ± 3.8 µg/L and the “activated clothing time ACT” value [3] was “remained unchanged”.
